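Each compound was tested at five concentrations against cells in 96-well plates for 48 hours. GI50: concentration for 50% inhibition of growth.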 Activity calls are given as the source filed them. Rule as the data show it: active = GI50 up to about 1.1 µM and inactive = higher.
What was measured:
Experiment in all cases: NCI anticancer screen, dose series, 48 h
[1] = system: MOLT-4
[2] = system: M14
[3] = system: HCC 2998
[4] = system: TK-10
[5] = system: SF-295
[6] = system: RXF 393
[7] = system: K562
[8] = system: U-251
[9] = system: SK-MEL-2
[10] = system: SF-268
[11] = system: SN12C
[12] = system: DU-145
[13] = system: RPMI-8226
[14] = system: PC-3
[15] = system: HL-60
[16] = system: NCI-H460
[17] = system: EKVX
[18] = system: HOP-62
[19] = system: OVCAR-8
[20] = system: HT-29

Measured: GI50

Cc1c(C)c(C)c(-n2c(=O)n(C)c(=O)n2C(C)(C)C)c(C)c1C
inactive: [1] > 100 µM | [2] > 100 µM | [3] > 100 µM | [4] > 100 µM | [5] > 100 µM | [6] > 100 µM | [7] 81.1 µM | [8] > 100 µM | [9] > 100 µM | [10] > 100 µM | [11] > 100 µM | [12] > 100 µM | [13] 89.5 µM | [14] > 100 µM | [15] 40.3 µM | [16] > 100 µM

Cc1cccc2nc3cccc(C(=O)NCCC[N+](C)(CCCNC(=O)c4cccc5nc6cccc(C)c6nc45)Cc4c([N+](=O)[O-])ncn4C)c3nc12
active: [1] 0.0396 µM | [8] 0.377 µM | [18] 0.993 µM | [19] 0.0859 µM | [20] 0.187 µM | [11] 0.378 µM | [12] 0.881 µM | [13] 0.0436 µM | [15] 0.199 µM | [16] 0.0632 µM
inactive: [2] 9.68 µM | [3] 1.67 µM | [4] 43.9 µM | [5] 1.35 µM | [6] 4.01 µM | [7] 25.4 µM | [17] 1.79 µM | [9] 6.95 µM | [10] 2.43 µM | [14] 1.46 µM

COc1cc(OCc2ccc3nc(OC)c(OC)nc3c2)cc(OC)c1OC
inactive: [1] > 10 µM | [2] > 10 µM | [3] > 10 µM | [4] > 10 µM | [5] > 10 µM | [6] > 10 µM | [7] > 10 µM | [8] > 10 µM | [17] > 10 µM | [18] > 10 µM | [10] > 10 µM | [19] > 10 µM | [20] > 10 µM | [11] > 10 µM | [12] > 10 µM | [13] > 10 µM | [14] > 3.08 µM | [15] > 10 µM | [16] > 10 µM

CCOc1snc(C(Cl)(Cl)Cl)c1Cl
inactive: [1] 13.3 µM | [2] 29 µM | [3] 22.4 µM | [4] 23.1 µM | [5] 21.9 µM | [6] 13.6 µM | [7] 9.33 µM | [8] 27.7 µM | [17] 15.8 µM | [18] 27.4 µM | [10] 17.7 µM | [19] 24.4 µM | [20] 15.5 µM | [11] 23.8 µM | [12] 16.6 µM | [13] 15.5 µM | [14] 28.4 µM | [15] 13.2 µM | [16] 26.9 µM

COC(=O)C1=CN(C2CCCCC2)C2(c3ccccc3)c3ccccc3C(=O)OC(=O)C12 (stereo unspecified)
inactive: [1] 10.6 µM | [2] > 100 µM | [3] 27 µM | [4] > 100 µM | [5] > 100 µM | [6] 23 µM | [7] 20.1 µM | [8] 99.3 µM | [17] > 100 µM | [18] 90.8 µM | [9] > 100 µM | [10] > 100 µM | [19] > 100 µM | [20] 62.2 µM | [11] > 100 µM | [12] > 100 µM | [14] 71.6 µM | [15] 15.2 µM | [16] 80.2 µM

CCN(CC)CCCC(C)NC(=O)c1cc(-c2nccn2C)nc2ccc(C)cc12 (stereo unspecified)
inactive: [1] > 10 µM | [2] > 100 µM | [3] > 100 µM | [4] > 100 µM | [6] > 100 µM | [8] > 100 µM | [17] > 100 µM | [18] > 100 µM | [9] > 100 µM | [10] > 100 µM | [19] > 100 µM | [20] > 100 µM | [11] > 10 µM | [12] > 100 µM | [13] > 100 µM | [14] > 100 µM | [15] > 100 µM | [16] 33 µM

N#Cc1c(-c2ccc(Cl)cc2Cl)nc2[nH]nc(S)n2c1=O
inactive: [1] > 100 µM | [2] > 100 µM | [3] > 100 µM | [4] > 100 µM | [5] > 100 µM | [6] > 100 µM | [8] > 100 µM | [17] > 100 µM | [18] > 100 µM | [9] > 100 µM | [10] > 100 µM | [19] > 100 µM | [20] > 100 µM | [11] > 100 µM | [12] > 100 µM | [13] > 100 µM | [14] > 100 µM | [15] > 100 µM | [16] > 100 µM

CN(C)c1ccc(C(=NNC(=O)c2cc3ccccc3[nH]2)c2ccc(N(C)C)cc2)cc1
active: [1] 0.293 µM | [2] 0.185 µM | [3] 0.193 µM | [5] 0.303 µM | [7] 0.0792 µM | [8] 0.348 µM | [9] 0.171 µM | [10] 0.433 µM | [19] 0.608 µM | [20] 0.195 µM | [13] 0.321 µM | [14] 0.598 µM | [15] 0.26 µM | [16] 0.348 µM
inactive: [4] 4.56 µM | [6] 1.15 µM | [17] 1.85 µM | [18] 1.77 µM | [11] 1.35 µM | [12] 1.39 µM

COc1cc(CNc2nc3ccccc3nc2C(=O)O)cc(OC)c1OC
inactive: [1] > 100 µM | [3] > 100 µM | [4] > 100 µM | [5] > 100 µM | [6] 94 µM | [7] > 100 µM | [8] > 100 µM | [17] 64.1 µM | [18] > 100 µM | [10] > 100 µM | [19] > 100 µM | [20] > 100 µM | [11] 83 µM | [12] > 100 µM | [13] > 100 µM | [14] > 100 µM | [15] > 100 µM | [16] 94 µM

COc1ccc(NC(=O)CC(=O)n2nc(C)c(/N=N/c3cccc(C)c3)c2C)cc1
inactive: [1] > 100 µM | [2] > 100 µM | [3] > 100 µM | [4] > 100 µM | [5] > 100 µM | [6] > 100 µM | [8] 54.1 µM | [17] 31.4 µM | [18] 37.6 µM | [9] > 100 µM | [10] > 100 µM | [19] > 100 µM | [20] > 100 µM | [11] > 100 µM | [12] > 100 µM | [13] 91.8 µM | [14] > 100 µM | [15] > 100 µM | [16] > 100 µM

CC(NNC(=O)c1ccc[n+]([BH2-]C#N)c1)c1ccccc1 (stereo unspecified)
inactive: [1] 38.3 µM | [2] > 100 µM | [3] > 100 µM | [4] > 100 µM | [5] > 100 µM | [6] > 100 µM | [7] > 100 µM | [8] > 100 µM | [17] > 100 µM | [18] > 100 µM | [9] > 100 µM | [10] > 100 µM | [19] > 100 µM | [20] > 100 µM | [11] > 100 µM | [12] > 100 µM | [14] > 100 µM | [15] 86.1 µM | [16] > 100 µM

Source: ChEMBL document CHEMBL1201862, “PubChem BioAssay data set” (2004)
